{"source": "patent US12427210B2", "about": "“Compounds comprising a fibroblast activation protein ligand and use thereof” (priority 2019, dated 2025)", "key": {"[1]": {"test_system": "serine protease NS3 (a.a. 3-181) from Hepatitis C virus genotype 1a (mutant D168V)", "settings": "Reference, 100 nM"}, "[2]": {"target": "serine protease NS3 (a.a. 3-181) from Hepatitis C virus genotype 2a (Hepatitis C virus genotype 2a, UniProt Q99IB8)", "sequence (Q99IB8 1033-1211 limits assumed, other chains not shown)": "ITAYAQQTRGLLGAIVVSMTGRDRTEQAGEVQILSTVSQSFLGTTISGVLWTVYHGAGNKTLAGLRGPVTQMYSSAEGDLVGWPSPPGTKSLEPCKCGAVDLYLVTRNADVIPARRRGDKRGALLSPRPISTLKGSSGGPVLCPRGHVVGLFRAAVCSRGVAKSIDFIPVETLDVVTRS", "settings": "100 nM"}, "[3]": {"test_system": "serine protease NS3 (a.a. 3-181) from Hepatitis C virus genotype 1b", "settings": "Reference, 100 nM"}, "DPP8": {"target": "DPP8 (Homo sapiens, UniProt Q6V1X1)", "sequence (Q6V1X1 whole entry, species assumed)": "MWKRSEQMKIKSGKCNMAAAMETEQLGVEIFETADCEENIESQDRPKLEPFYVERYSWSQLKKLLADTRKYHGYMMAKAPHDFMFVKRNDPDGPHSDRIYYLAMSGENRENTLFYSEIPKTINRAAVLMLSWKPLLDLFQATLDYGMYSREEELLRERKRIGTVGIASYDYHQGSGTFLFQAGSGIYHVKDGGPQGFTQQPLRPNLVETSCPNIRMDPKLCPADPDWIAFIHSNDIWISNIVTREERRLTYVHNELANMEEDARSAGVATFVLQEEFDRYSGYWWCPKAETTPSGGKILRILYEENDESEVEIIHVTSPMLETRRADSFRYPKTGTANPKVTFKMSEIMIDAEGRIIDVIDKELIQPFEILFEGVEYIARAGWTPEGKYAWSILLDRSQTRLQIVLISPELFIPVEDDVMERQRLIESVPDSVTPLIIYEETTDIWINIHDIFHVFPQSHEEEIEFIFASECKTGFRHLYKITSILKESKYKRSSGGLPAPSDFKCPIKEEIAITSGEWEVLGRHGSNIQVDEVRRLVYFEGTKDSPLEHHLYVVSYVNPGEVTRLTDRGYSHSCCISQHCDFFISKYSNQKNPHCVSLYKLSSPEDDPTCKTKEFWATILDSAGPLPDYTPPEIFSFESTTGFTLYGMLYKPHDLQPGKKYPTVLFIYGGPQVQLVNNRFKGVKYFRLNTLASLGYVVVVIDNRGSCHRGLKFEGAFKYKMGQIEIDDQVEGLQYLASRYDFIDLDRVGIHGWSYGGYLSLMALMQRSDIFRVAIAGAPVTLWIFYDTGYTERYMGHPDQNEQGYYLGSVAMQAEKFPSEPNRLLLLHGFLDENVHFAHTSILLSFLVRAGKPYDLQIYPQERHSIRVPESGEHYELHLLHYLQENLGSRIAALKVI", "settings": "200 μM"}, "DPP7": {"target": "DPP7 (Homo sapiens, UniProt Q9UHL4)", "settings": "200 μM"}, "FAP": {"target": "FAP (Homo sapiens, UniProt Q12884)", "sequence (Q12884 whole entry)": "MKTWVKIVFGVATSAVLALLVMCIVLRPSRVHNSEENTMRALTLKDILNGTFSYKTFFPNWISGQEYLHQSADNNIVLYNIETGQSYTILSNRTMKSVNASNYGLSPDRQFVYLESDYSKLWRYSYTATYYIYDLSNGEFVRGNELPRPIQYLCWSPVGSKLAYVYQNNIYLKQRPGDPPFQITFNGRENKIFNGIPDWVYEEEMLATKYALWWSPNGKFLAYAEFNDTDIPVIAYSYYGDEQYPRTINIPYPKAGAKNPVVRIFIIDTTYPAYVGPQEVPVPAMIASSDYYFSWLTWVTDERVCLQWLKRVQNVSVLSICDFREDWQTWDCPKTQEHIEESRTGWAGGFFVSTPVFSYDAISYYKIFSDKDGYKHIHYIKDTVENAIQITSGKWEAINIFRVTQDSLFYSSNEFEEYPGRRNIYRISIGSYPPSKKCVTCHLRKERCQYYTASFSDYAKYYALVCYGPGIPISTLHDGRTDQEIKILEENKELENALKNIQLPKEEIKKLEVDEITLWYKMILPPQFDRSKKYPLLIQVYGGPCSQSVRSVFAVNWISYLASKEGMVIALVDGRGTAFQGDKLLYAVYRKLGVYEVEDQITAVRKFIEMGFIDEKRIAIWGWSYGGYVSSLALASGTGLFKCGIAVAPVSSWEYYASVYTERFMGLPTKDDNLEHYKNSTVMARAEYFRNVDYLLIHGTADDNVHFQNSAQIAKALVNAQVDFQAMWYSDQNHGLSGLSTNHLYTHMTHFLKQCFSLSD", "settings": "100 nM"}, "[4]": {"target": "T1, Ubiquitin carboxyl-terminal hydrolase 8 (Homo sapiens, UniProt P40818)", "T1 sequence (P40818 1-1118)": "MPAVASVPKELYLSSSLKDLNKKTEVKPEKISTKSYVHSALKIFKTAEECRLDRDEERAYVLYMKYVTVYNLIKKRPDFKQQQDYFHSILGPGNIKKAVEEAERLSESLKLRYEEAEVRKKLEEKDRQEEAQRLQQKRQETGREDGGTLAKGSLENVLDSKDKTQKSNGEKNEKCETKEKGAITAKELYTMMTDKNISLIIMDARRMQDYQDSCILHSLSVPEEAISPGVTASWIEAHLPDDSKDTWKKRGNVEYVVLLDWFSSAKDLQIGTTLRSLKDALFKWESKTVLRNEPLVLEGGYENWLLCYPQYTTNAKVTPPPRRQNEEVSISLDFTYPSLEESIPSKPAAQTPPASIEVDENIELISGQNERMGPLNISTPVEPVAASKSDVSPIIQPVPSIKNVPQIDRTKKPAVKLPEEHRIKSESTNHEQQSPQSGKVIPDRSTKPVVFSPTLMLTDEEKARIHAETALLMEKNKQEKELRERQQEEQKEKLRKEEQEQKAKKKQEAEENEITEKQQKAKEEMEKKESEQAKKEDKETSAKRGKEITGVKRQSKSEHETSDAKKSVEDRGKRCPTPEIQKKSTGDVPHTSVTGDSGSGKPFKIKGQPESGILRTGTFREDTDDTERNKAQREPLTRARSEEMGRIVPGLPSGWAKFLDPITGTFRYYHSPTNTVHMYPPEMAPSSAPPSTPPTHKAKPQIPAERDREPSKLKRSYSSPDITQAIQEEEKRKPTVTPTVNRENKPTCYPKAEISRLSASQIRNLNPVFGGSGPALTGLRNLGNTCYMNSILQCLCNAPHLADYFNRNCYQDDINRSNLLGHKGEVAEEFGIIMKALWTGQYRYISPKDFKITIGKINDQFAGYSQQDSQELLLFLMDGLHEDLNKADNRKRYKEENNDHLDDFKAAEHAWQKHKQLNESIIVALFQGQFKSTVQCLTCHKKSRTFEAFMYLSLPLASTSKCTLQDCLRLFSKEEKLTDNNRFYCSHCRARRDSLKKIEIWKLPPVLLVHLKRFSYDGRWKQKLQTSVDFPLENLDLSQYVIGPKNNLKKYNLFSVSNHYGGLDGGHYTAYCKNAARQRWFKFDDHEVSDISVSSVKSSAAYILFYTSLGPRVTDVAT", "settings": "1 μM"}, "[5]": {"target": "Ubiquitin carboxyl-terminal hydrolase 14 (Homo sapiens, UniProt P54578)", "sequence (P54578 whole entry)": "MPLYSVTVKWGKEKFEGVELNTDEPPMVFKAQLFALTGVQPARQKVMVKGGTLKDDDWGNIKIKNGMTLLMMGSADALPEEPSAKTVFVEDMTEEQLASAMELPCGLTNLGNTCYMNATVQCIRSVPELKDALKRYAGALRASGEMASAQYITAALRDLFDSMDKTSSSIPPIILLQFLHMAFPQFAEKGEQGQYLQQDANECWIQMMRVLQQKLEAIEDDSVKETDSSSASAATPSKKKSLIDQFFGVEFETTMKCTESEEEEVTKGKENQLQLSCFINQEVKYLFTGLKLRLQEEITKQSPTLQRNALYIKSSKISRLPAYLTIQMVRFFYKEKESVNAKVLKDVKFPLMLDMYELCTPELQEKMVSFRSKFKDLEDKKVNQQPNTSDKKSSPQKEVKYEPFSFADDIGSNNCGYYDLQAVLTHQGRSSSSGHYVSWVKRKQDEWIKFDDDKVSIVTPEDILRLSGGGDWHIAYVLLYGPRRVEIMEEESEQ", "settings": "100 nM"}, "[6]": {"target": "T2, Ubiquitin carboxyl-terminal hydrolase 2 (Homo sapiens, UniProt O75604)", "T2 sequence (O75604 1-605)": "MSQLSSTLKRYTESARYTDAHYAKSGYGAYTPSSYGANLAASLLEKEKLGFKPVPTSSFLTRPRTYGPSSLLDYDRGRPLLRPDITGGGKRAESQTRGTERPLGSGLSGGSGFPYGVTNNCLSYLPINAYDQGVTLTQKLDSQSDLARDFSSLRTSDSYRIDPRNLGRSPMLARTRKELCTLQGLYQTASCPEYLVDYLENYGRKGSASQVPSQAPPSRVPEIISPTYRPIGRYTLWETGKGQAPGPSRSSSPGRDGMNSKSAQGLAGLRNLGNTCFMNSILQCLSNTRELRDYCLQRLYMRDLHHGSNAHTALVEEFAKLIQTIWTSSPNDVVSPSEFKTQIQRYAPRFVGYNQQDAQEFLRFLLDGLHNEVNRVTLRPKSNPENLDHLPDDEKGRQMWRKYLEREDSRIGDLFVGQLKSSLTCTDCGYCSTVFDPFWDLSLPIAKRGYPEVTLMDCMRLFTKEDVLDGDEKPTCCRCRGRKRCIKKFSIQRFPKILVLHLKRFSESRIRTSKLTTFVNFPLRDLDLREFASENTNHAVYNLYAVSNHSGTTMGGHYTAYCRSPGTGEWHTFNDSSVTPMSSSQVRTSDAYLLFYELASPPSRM", "settings": "1 μM"}, "[7]": {"target": "T3, Ubiquitin carboxyl-terminal hydrolase 5 (Homo sapiens, UniProt P45974)", "T3 sequence (P45974 1-858)": "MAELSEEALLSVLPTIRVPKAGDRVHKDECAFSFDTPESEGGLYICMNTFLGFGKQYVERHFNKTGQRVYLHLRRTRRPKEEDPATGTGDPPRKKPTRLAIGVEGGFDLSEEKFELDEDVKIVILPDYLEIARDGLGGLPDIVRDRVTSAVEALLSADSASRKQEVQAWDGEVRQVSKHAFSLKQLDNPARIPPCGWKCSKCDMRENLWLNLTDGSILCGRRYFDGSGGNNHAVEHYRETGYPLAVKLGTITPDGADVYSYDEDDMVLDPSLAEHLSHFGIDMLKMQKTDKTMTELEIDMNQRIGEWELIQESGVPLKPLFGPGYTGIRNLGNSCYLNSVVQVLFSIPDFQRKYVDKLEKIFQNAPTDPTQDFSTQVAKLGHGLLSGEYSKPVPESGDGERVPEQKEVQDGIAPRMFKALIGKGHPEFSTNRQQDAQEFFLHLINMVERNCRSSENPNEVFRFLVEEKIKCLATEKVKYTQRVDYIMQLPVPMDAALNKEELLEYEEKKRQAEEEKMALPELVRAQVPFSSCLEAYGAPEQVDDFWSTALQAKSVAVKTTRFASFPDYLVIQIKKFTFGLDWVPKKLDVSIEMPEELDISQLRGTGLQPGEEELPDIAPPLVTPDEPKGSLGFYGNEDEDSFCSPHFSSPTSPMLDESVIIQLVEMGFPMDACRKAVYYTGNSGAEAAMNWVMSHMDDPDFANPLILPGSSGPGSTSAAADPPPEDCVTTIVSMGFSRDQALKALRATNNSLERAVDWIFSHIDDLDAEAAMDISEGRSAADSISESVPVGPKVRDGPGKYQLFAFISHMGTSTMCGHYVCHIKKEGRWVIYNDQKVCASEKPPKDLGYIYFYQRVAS", "settings": "1 μM"}, "Ataxin3": {"target": "Ataxin3 (Homo sapiens, UniProt P54252)", "sequence (P54252 whole entry, species assumed)": "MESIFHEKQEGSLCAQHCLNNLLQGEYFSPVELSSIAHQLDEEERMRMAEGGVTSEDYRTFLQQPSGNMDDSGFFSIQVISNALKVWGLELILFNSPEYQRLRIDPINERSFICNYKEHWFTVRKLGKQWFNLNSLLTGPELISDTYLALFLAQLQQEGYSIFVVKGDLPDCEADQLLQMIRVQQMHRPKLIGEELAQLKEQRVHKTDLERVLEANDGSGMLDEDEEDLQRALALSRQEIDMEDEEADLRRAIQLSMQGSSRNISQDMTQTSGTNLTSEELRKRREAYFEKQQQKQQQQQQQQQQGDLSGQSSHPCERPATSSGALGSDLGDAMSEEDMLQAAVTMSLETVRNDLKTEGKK", "settings": "10 μM"}, "[8]": {"target": "Ubiquitin carboxyl-terminal hydrolase 7 (Homo sapiens, UniProt Q93009)", "sequence (Q93009 whole entry)": "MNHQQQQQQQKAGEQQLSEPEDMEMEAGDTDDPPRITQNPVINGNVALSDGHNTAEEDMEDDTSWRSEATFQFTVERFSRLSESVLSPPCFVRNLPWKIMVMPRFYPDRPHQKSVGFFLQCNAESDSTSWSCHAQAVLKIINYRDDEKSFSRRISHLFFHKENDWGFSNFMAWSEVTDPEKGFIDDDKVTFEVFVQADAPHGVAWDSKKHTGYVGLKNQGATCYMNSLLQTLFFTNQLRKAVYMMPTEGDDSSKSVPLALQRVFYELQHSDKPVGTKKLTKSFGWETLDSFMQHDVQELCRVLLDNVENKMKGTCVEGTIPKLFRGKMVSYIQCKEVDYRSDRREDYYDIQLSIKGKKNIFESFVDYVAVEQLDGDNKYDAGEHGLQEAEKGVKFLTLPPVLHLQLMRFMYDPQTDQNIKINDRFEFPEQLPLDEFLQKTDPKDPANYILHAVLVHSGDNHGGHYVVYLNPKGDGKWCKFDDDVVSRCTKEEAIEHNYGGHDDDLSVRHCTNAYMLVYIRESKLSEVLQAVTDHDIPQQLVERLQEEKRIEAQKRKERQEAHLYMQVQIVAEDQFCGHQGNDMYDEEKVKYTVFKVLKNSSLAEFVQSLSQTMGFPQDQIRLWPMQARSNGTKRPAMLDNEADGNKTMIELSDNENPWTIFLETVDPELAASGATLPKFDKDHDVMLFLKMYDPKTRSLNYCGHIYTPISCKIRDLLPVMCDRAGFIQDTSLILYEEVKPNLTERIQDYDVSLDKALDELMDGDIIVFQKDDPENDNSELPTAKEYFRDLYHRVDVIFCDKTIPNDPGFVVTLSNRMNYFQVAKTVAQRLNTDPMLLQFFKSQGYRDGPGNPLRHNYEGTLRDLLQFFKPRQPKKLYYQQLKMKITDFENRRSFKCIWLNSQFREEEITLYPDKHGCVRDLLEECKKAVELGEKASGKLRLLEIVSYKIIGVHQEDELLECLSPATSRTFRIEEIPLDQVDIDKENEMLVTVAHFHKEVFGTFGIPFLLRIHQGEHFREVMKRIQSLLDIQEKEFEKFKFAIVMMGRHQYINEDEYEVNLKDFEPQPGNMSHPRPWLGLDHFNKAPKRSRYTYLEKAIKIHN", "settings": "1 μM"}, "[9]": {"target": "Ubiquitin carboxyl-terminal hydrolase 10 (Homo sapiens, UniProt Q14694)", "sequence (Q14694 whole entry)": "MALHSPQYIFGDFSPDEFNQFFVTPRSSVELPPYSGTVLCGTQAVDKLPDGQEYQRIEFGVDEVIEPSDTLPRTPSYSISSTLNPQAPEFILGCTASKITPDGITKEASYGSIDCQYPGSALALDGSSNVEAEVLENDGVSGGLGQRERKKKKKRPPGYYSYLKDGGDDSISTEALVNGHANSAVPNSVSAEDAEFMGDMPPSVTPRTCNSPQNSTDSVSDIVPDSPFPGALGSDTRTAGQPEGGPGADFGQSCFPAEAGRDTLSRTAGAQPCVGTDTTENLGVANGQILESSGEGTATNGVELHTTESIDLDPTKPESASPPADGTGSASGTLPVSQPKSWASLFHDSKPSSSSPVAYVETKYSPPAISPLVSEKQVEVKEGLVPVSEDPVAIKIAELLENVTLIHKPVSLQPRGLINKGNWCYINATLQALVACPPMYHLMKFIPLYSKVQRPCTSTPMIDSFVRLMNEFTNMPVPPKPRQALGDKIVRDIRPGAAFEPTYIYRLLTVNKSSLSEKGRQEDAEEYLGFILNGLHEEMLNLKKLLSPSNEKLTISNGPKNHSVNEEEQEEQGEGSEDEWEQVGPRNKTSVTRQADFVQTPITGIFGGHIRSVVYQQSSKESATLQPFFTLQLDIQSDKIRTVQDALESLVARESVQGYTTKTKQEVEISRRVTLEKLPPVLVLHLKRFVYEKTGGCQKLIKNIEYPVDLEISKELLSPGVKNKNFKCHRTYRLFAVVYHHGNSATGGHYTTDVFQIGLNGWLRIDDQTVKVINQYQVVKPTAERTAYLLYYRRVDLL", "settings": "1 μM"}, "[10]": {"target": "T4, Ubiquitin carboxy-terminal hydrolase L3 (Homo sapiens, UniProt P15374)", "T4 sequence (P15374 1-230)": "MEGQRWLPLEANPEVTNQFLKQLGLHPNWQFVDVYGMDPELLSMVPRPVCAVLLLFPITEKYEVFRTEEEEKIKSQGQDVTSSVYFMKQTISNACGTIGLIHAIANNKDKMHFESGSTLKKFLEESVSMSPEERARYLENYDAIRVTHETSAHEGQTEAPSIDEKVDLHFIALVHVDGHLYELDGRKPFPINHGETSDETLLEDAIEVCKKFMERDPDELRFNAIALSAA", "settings": "10 nM"}, "Deubiquitinase OTUD6B": {"target": "T5, Deubiquitinase OTUD6B (Homo sapiens, UniProt Q8N6M0)", "T5 sequence (Q8N6M0 1-293)": "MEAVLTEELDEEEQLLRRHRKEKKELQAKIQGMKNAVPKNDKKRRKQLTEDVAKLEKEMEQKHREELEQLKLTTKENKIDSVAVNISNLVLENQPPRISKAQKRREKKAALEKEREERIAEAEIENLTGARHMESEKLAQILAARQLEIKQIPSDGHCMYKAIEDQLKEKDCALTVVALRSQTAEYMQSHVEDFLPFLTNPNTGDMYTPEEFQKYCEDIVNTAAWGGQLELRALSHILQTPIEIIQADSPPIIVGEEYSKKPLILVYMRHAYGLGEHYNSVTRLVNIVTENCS", "settings": "1 μM"}, "[11]": {"target": "T6, Ubiquitin carboxy-terminal hydrolase L1 (Homo sapiens, UniProt P09936)", "T6 sequence (P09936 1-223)": "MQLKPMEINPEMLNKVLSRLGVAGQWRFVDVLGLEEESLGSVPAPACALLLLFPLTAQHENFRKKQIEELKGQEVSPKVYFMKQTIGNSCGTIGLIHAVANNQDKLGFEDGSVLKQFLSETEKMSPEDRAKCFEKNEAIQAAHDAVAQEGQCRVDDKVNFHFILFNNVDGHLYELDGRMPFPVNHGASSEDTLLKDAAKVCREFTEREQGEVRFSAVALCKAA", "settings": "100 nM"}}}
{"compound": "CC(C)(C)OC(=O)N[C@H]1CCCCC/C=C\\[C@@H]2C[C@@]2(C(=O)NS(=O)(=O)C2CC2)NC(=O)[C@@H]2C[C@@H](OC(=O)N3Cc4cccc(F)c4C3)CN2C1=O", "note": "[Denoprevir, reference compound]", "values": [{"measurement": "Percentage inhibition (%), Reference", "setting": "[1]", "value": 94, "unit": "%"}, {"measurement": "Percentage inhibition (%), Reference", "setting": "[2]", "value": 98, "unit": "%"}, {"measurement": "Percentage inhibition (%), Reference", "setting": "[3]", "value": 100, "unit": "%"}]}
{"compound": "N#Cc1ccc(NCCNCC(=O)N2N=CCC2C#N)nc1", "note": "(stereo not shown) [KR62436]", "values": [{"measurement": "Percentage inhibition (%), Reference", "setting": "DPP8", "value": 96, "unit": "%"}, {"measurement": "Percentage inhibition (%), Reference", "setting": "DPP7", "value": 83, "unit": "%"}]}
{"compound": "N#C[C@@H]1CC(F)(F)CN1C(=O)CNC(=O)c1ccnc2ccccc12", "note": "[SP-13786]", "values": [{"measurement": "Percentage inhibition (%), Reference", "setting": "FAP", "value": 100, "unit": "%"}]}
{"compound": "Ub-Aldehyde", "values": [{"measurement": "Percentage inhibition (%), Reference", "setting": "[4]", "value": 73, "unit": "%"}, {"measurement": "Percentage inhibition (%), Reference", "setting": "[5]", "value": 96, "unit": "%"}, {"measurement": "Percentage inhibition (%), Reference", "setting": "[6]", "value": 91, "unit": "%"}, {"measurement": "Percentage inhibition (%), Reference", "setting": "[7]", "value": 84, "unit": "%"}, {"measurement": "Percentage inhibition (%), Reference", "setting": "Ataxin3", "value": 77, "unit": "%"}, {"measurement": "Percentage inhibition (%), Reference", "setting": "[8]", "value": 95, "unit": "%"}, {"measurement": "Percentage inhibition (%), Reference", "setting": "[9]", "value": 82, "unit": "%"}, {"measurement": "Percentage inhibition (%), Reference", "setting": "[10]", "value": 95, "unit": "%"}, {"measurement": "Percentage inhibition (%), Reference", "setting": "Deubiquitinase OTUD6B", "value": 97, "unit": "%"}, {"measurement": "Percentage inhibition (%), Reference", "setting": "[11]", "value": 92, "unit": "%"}]}
